Patent US12077503B2, “Substituted cyclic amides and their use as herbicides” (FMC CORPORATION, priority 2015, dated 2024)

Assays:
Assay type in all cases: in vivo
Kochia (Kochia scoparia) [1] = test: Test A postemergence; details: Bassia scoparia, post-emergence, 240 h, Postemergence; for pest or weed control at 125 g/ha: 125 g ai/ha, visual rating about 10 d after treatment, read-out: Kochia plant response rating (0 to 100 scale); for pest or weed control at 500 g/ha: 500 g ai/ha, visual injury, 0 to 100 scale (0 no effect, 100 complete control), approx. 10 d, read-out: Plant response rating, Kochia
Procedure, shortened: (§1)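 Seeds sprayed preemergence with a directed soil spray, or plants at 2 to 10 cm height and one- to two-leaf stage sprayed postemergence, with test chemicals in a non-phytotoxic solvent mixture containing surfactant, in loam soil–sand blend. Injury rated visually against untreated controls after about 10 d in greenhouse, 0 (no effect) to 100 (complete control).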

[2] = test system: Galium (catchweed bedstraw, Galium aparine); test: Test A postemergence; details: Galium, post-emergence, 240 h, Postemergence; for pest or weed control at 125 g/ha: 125 g ai/ha, visual rating about 10 d after treatment, read-out: Galium plant response rating (0 to 100 scale); for pest or weed control at 500 g/ha: 500 g ai/ha, visual injury, 0 to 100 scale (0 no effect, 100 complete control), approx. 10 d, read-out: Plant response rating, Galium
Procedure, shortened: as §1

[3] = test system: barnyardgrass (Echinochloa crus-galli); test: Test A postemergence; details: Echinochloa crus-galli, post-emergence, 240 h, Postemergence; for pest or weed control at 125 g/ha: 125 g ai/ha, visual rating about 10 d after treatment, read-out: Barnyardgrass plant response rating (0 to 100 scale, 0 no effect, 100 complete control); for pest or weed control at 500 g/ha: 500 g ai/ha, visual injury, 0 to 100 scale (0 no effect, 100 complete control), approx. 10 d, read-out: Plant response rating, Barnyardgrass
Procedure, shortened: as §1

[4] = test system: blackgrass (Alopecurus myosuroides); test: Test A postemergence; details: Alopecurus myosuroides, post-emergence, 240 h, Postemergence; for pest or weed control at 125 g/ha: 125 g ai/ha, visual rating about 10 d after treatment, read-out: Blackgrass plant response rating (0 to 100 scale); for pest or weed control at 500 g/ha: 500 g ai/ha, visual injury, 0 to 100 scale (0 no effect, 100 complete control), approx. 10 d, read-out: Plant response rating, Blackgrass
Procedure, shortened: as §1

[5] = test system: ragweed (common ragweed, Ambrosia elatior); test: Test A postemergence; details: Ambrosia artemisiifolia, post-emergence, 240 h, Postemergence; for pest or weed control at 125 g/ha: 125 g ai/ha, visual rating about 10 d after treatment, read-out: Ragweed plant response rating (0 to 100 scale); for pest or weed control at 500 g/ha: 500 g ai/ha, visual injury, 0 to 100 scale (0 no effect, 100 complete control), approx. 10 d, read-out: Plant response rating, Ragweed
Procedure, shortened: as §1

[6] = test system: giant foxtail (Setaria faberii); test: Test A postemergence; details: Setaria faberi, post-emergence, 240 h, Postemergence; for pest or weed control at 125 g/ha: 125 g ai/ha, visual rating about 10 d after treatment, read-out: Foxtail, Giant plant response rating (0 to 100 scale); for pest or weed control at 500 g/ha: 500 g ai/ha, visual injury, 0 to 100 scale (0 no effect, 100 complete control), approx. 10 d, read-out: Plant response rating, Foxtail, Giant
Procedure, shortened: as §1

[7] = test system: ryegrass, Italian (Italian ryegrass, Lolium multiflorum); test: Test A postemergence; details: Lolium multiflorum, post-emergence, 240 h, Postemergence; for pest or weed control at 125 g/ha: 125 g ai/ha, visual rating about 10 d after treatment, read-out: Ryegrass, Italian plant response rating (0 to 100 scale); for pest or weed control at 500 g/ha: 500 g ai/ha, visual injury, 0 to 100 scale (0 no effect, 100 complete control), approx. 10 d, read-out: Plant response rating, Ryegrass, Italian
Procedure, shortened: as §1

[8] = test system: pigweed (Amaranthus retroflexus); test: Test A postemergence; details: Amaranthus retroflexus, post-emergence, 240 h, Postemergence; for pest or weed control at 125 g/ha: 125 g ai/ha, visual rating about 10 d after treatment, read-out: Pigweed plant response rating (0 to 100 scale); for pest or weed control at 500 g/ha: 500 g ai/ha, visual injury, 0 to 100 scale (0 no effect, 100 complete control), approx. 10 d, read-out: Plant response rating, Pigweed
Procedure, shortened: as §1

corn (Zea mays) = test: Test A postemergence; details: Zea mays, post-emergence, 240 h, Postemergence; for plant injury at 125 g/ha: 125 g ai/ha, visual rating about 10 d after treatment, read-out: Corn plant response rating (0 to 100 scale); for Corn plant response rating (crop injury, 0 = no effect, 100 = complete kill) at 500 g/ha: 500 g ai/ha, visual injury, 0 to 100 scale (0 no effect, 100 complete control), approx. 10 d
Procedure, shortened: as §1

[9] = test system: wheat (Triticum aestivum); test: Test A postemergence; details: Triticum aestivum, post-emergence, 240 h, Postemergence; for plant injury at 125 g/ha: 125 g ai/ha, visual rating about 10 d after treatment, read-out: Wheat plant response rating (0 to 100 scale); for plant injury at 500 g/ha: 500 g ai/ha, visual injury, 0 to 100 scale (0 no effect, 100 complete control), approx. 10 d, read-out: Plant response rating, Wheat
Procedure, shortened: as §1

Kochia (Kochia scoparia) [10] = test: Test A preemergence; details: Bassia scoparia, pre-emergence, 240 h, preemergence, 0 to 100 scale where 0 is no effect and 100 is complete control, read-out: Kochia plant response rating; for pest or weed control at 125 g/ha: 125 g ai/ha, visual injury rating, approximately 10 d; for pest or weed control at 500 g/ha: 500 g ai/ha
Procedure, shortened: as §1

[11] = test system: barnyardgrass (Echinochloa crus-galli); test: Test A preemergence; details: Echinochloa crus-galli, pre-emergence, 240 h, preemergence, 0 to 100 scale where 0 is no effect and 100 is complete control, read-out: Barnyardgrass plant response rating; for pest or weed control at 125 g/ha: 125 g ai/ha, visual injury rating, approximately 10 d; for pest or weed control at 500 g/ha: 500 g ai/ha
Procedure, shortened: as §1

[12] = test system: ragweed (common ragweed, Ambrosia elatior); test: Test A preemergence; details: Ambrosia artemisiifolia, pre-emergence, 240 h, preemergence, 0 to 100 scale where 0 is no effect and 100 is complete control, read-out: Ragweed plant response rating; for pest or weed control at 125 g/ha: 125 g ai/ha, visual injury rating, approximately 10 d; for pest or weed control at 500 g/ha: 500 g ai/ha
Procedure, shortened: as §1

[13] = test system: giant foxtail (Setaria faberii); test: Test A preemergence; details: Setaria faberi, pre-emergence, 240 h, preemergence, 0 to 100 scale where 0 is no effect and 100 is complete control, read-out: Foxtail, Giant plant response rating; for pest or weed control at 125 g/ha: 125 g ai/ha, visual injury rating, approximately 10 d; for pest or weed control at 500 g/ha: 500 g ai/ha
Procedure, shortened: as §1

[14] = test system: ryegrass, Italian (Italian ryegrass, Lolium multiflorum); test: Test A preemergence; details: Lolium multiflorum, pre-emergence, 240 h, preemergence, 0 to 100 scale where 0 is no effect and 100 is complete control, read-out: Ryegrass, Italian plant response rating; for pest or weed control at 125 g/ha: 125 g ai/ha, visual injury rating, approximately 10 d; for pest or weed control at 500 g/ha: 500 g ai/ha
Procedure, shortened: as §1

[15] = test system: pigweed (Amaranthus retroflexus); test: Test A preemergence; details: Amaranthus retroflexus, pre-emergence, 240 h, preemergence, 0 to 100 scale where 0 is no effect and 100 is complete control, read-out: Pigweed plant response rating; for pest or weed control at 125 g/ha: 125 g ai/ha, visual injury rating, approximately 10 d; for pest or weed control at 500 g/ha: 500 g ai/ha

Row | Structure (SMILES) | pest or weed control at 125 g/ha (Kochia (Kochia scoparia) [1]) [%] | pest or weed control at 500 g/ha (Kochia (Kochia scoparia) [1]) [%] | pest or weed control at 125 g/ha [2] [%] | pest or weed control at 500 g/ha [2] [%] | pest or weed control at 125 g/ha [3] [%] | pest or weed control at 500 g/ha [3] [%] | pest or weed control at 125 g/ha [4] [%] | pest or weed control at 500 g/ha [4] [%] | pest or weed control at 125 g/ha [5] [%] | pest or weed control at 500 g/ha [5] [%] | pest or weed control at 125 g/ha [6] [%] | pest or weed control at 500 g/ha [6] [%] | pest or weed control at 125 g/ha [7] [%] | pest or weed control at 500 g/ha [7] [%] | pest or weed control at 125 g/ha [8] [%] | pest or weed control at 500 g/ha [8] [%] | plant injury at 125 g/ha (corn (Zea mays)) [%] | Corn plant response rating (crop injury, 0 = no effect, 100 = complete kill) at 500 g/ha (corn (Zea mays)) [%] | plant injury at 125 g/ha [9] [%] | plant injury at 500 g/ha [9] [%] | also measured
1 | O=C1NC[C@H](c2nccc(C(F)(F)F)n2)[C@H]1C(=O)Nc1ccccc1F [Compound 1304] | 0 | 0 | 0 | 0 | 0 | 0 | 0 | 0 | 0 | 0 | 0 | 0 | 0 | 0 | 0 | 0 | 0 | 0 | 0 | 0 | pest or weed control at 125 g/ha (Kochia (Kochia scoparia) [10]): 0%; pest or weed control at 500 g/ha (Kochia (Kochia scoparia) [10]): 0%; pest or weed control at 125 g/ha [11]: 0%; pest or weed control at 500 g/ha [11]: 0%; pest or weed control at 125 g/ha [12]: 0%; pest or weed control at 500 g/ha [12]: 0%; pest or weed control at 125 g/ha [13]: 0%; pest or weed control at 500 g/ha [13]: 0%; pest or weed control at 125 g/ha [14]: 0%; pest or weed control at 500 g/ha [14]: 0%; pest or weed control at 125 g/ha [15]: 0%; pest or weed control at 500 g/ha [15]: 0%
2 | CSc1ccccc1NC(=O)[C@H]1C(=O)NC[C@@H]1c1cc(C)cc(F)c1 [Compound 1306] | 0 | 60 | 20 | 40 | 20 | 90 | 0 | 0 | 0 | 0 | 0 | 20 | 0 | 0 | 0 | 0 | 0 | 0 | 0 | 0 | pest or weed control at 125 g/ha (Kochia (Kochia scoparia) [10]): 0%; pest or weed control at 500 g/ha (Kochia (Kochia scoparia) [10]): 70%; pest or weed control at 125 g/ha [11]: 60%; pest or weed control at 500 g/ha [11]: 90%; pest or weed control at 125 g/ha [12]: 40%; pest or weed control at 500 g/ha [12]: 60%; pest or weed control at 125 g/ha [13]: 30%; pest or weed control at 500 g/ha [13]: 90%; pest or weed control at 125 g/ha [14]: 0%; pest or weed control at 500 g/ha [14]: 0%; pest or weed control at 125 g/ha [15]: 0%; pest or weed control at 500 g/ha [15]: 0%
